≈ marks a conversion by molar mass, not a printed value. Read-outs that look alike come from different tables or passages of the source.
Assays:
purified tubulin [1] = system: T1, purified tubulin; assay: Inhibition of tubulin polymerization assay; assay type: biochemical, bovine
T1 construct: other: at 4 pM
Protocol: IC50 values for tubulin polymerization were determined according to the procedure described in Bai et al. Purified tubulin is obtained from bovine brain cells as described in Hamel and Lin. Various amounts of inhibitor were preincubated for 15 minutes at 37° C. with purified tubulin. After the incubation period, the reaction was cooled and GTP was added to induce tubulin polymerization. Polymerization was then monitored in a Gilford spectrophotometer at 350 nm. The final reaction mixtures (0.25 ml) contained 1.5 mg/ml tubulin, 0.6 mg/ml microtubule-associated proteins (MAPs), 0.5 mM GTP, […], 4% DMSO and 0.1M 4-morpholineethanesulfonate buffer (MES, pH 6.4). IC50 is the amount of inhibitor needed to inhibit tubulin polymerization 50% with respect to the amount of […] that occurs in the absence of inhibitor.

NCI-H460 (Lung-NSC) [2] = assay: cells; assay type: cell-based
Protocol: (§1) 3-(3′,4′,5′-Trimethoxybenzoyl)-2-(4′-methoxyphenyl)-6-methoxyindole was evaluated in terms of growth inhibitory activity against several human cancer cell lines, including pancreas, ovarian, CNS, lung-NSC, colon, and prostate lines. The assay used is described in Monks et al. Briefly, the cell suspensions, diluted according to the particular cell type and the expected target cell density (5,000-40,000 cells per well based on cell growth characteristics), were added by pipet (100 μl) to 96-well microtiter plates. Inoculates were allowed a preincubation time of24-28 hours at 37° C. for stabilization. Incubation with the inhibitor compounds lasted for 48 hours in 5% CO2 atmosphere and 100% humidity. Determination of cell growth was done by in situ fixation of cells, followed by staining with a protein-binding dye, sulforhodamine B (SRB), which binds to the basic amino acids of cellular macromolecules. The solubilized stain was measured spectrophotometrically. G150 is defined as the dosage required to inhibit tumor cell growth by 50%.

SF-295 (CNS) [3] = assay: Growth inhibition of human cancer cell line SF-295; assay type: cell-based
Protocol: as §1

OVCAR-3 (Ovarian) [4] = assay: Growth inhibition of human cancer cell line OVCAR-3; assay type: cell-based
Protocol: as §1

KM20L2 (Colon) [5] = assay: Growth inhibition of human cancer cell line KM20L2; assay type: cell-based
Protocol: as §1

BXPC-3 (Pancreas-a) = assay: Growth inhibition of human cancer cell line BXPC-3; assay type: cell-based
Protocol: as §1

DU-145 (Prostate) = assay: Growth inhibition of human cancer cell line DU-145; assay type: cell-based
Protocol: as §1

P388 leukemia cells = assay: Cytotoxic assay with P388 leukemia cells; assay type: cell-based
KM20L2 (Colon) [6] = conditions: data from synthesis of phenstatin phosphate (Pettit); cited from earlier work
SF-295 (CNS) [7] = conditions: data from synthesis of phenstatin phosphate (Pettit); cited from earlier work
NCI-H460 (Lung-NSC) [8] = conditions: data from synthesis of phenstatin phosphate (Pettit); cited from earlier work
purified tubulin [9] = conditions: reported by Pettit and co-workers, cited from earlier work; for IC50: read-out: IC50 for inhibition of tubulin polymerization
OVCAR-3 (Ovarian) [10] = conditions: data from synthesis of phenstatin phosphate (Pettit); cited from earlier work
SW1736 (Thyroid ca) = assay: Growth inhibition of human cancer cell line SW1736; assay type: cell-based; conditions: SW-1736, SW1736, Table I
FADU (Pharynx-sqam) = assay: Growth inhibition of human cancer cell line FADU; assay type: cell-based; conditions: Table I
SK-N-SH (Neuroblast) = assay: Growth inhibition of human cancer cell line SK-N-SH; assay type: cell-based; conditions: Table I
[11] = read-out: IC50 for inhibition of tubulin polymerization

In the case of `COc1ccc(/C=C\c2cc(OC)c(OC)c(OC)c2)cc1N` [Amine-CA-4 8], the IC50 (purified tubulin [1]; [11]) is reported as 1.2 ± 0.02 µM and the GI50 (NCI-H460 (Lung-NSC) [2]; Homo sapiens, NCI-H460, read-out: GI50) is reported as 0.00068 µg/mL (≈ 0.00216 µM).

For `COc1ccc(-c2[nH]c3cc(OC)ccc3c2C(=O)c2cc(OC)c(OC)c(OC)c2)cc1` [Indole-based Ligand 33, 3-(3′,4′,5′-trimethoxybenzoyl)-2-(4′-methoxyphenyl)-6-methoxyindole], the GI50 (SF-295 (CNS) [3]; Homo sapiens, SF-295, 48 hours, SRB, read-out: GI50) was 0.0024 µg/mL (≈ 0.00536 µM), the GI50 (OVCAR-3 (Ovarian) [4]; Homo sapiens, OVCAR-3, 48 hours, SRB, read-out: GI50) was 0.0024 µg/mL (≈ 0.00536 µM) and the GI50 (KM20L2 (Colon) [5]; Homo sapiens, KM-20L2, KM20L2, 48 hours, SRB, read-out: GI50) was 0.0017 µg/mL (≈ 0.0038 µM). The GI50 (NCI-H460 (Lung-NSC) [2]; Homo sapiens, NCI-H460, 48 hours, SRB, read-out: GI50) was 0.0026 µg/mL (≈ 0.00581 µM), the GI50 (BXPC-3 (Pancreas-a); Homo sapiens, BXPC-3, 48 hours, SRB, read-out: GI50) was 0.002 µg/mL (≈ 0.00447 µM) and the GI50 (DU-145 (Prostate); Homo sapiens, DU-145, 48 hours, SRB, read-out: GI50) was 0.0023 µg/mL (≈ 0.00514 µM). For the same molecule, the “ED50 (effective dosage required to inhibit 50% of cell growth)” value (P388 leukemia cells; P388 leukemia cells) was 0.0133 µg/mL.

For `COc1ccc(C(=O)c2cc(OC)c(OC)c(OC)c2)cc1OP(=O)(O)O` [Phenstatin Prodrug], the GI50 (KM20L2 (Colon) [6]) is listed as 0.27 µg/mL (≈ 0.678 µM), the GI50 (SF-295 (CNS) [7]) is listed as 0.012 µg/mL (≈ 0.0301 µM) and the GI50 (NCI-H460 (Lung-NSC) [8]) is listed as 0.035 µg/mL (≈ 0.0879 µM). For the same molecule, the “activity in inhibition of tubulin polymerization compared to phenstatin” value (purified tubulin [9]) was 40%, the IC50 (purified tubulin [9]) was 21 ± 3 µM and the GI50 (OVCAR-3 (Ovarian) [10]) was 0.0025 µg/mL (≈ 0.00628 µM).

`COc1ccc(-c2[nH]c3cc(OC)ccc3c2C(=O)c2cc(OC)c(OC)c(OC)c2)cc1` [3-(3′,4′,5′-trimethoxybenzoyl)-2-(4′-methoxyphenyl)-6-methoxyindole] gave an IC50 (purified tubulin [1]; [11]) of 0.5 to 1.5 µM.

In the case of `COc1ccc(C(=O)c2cc(OC)c(OC)c(OC)c2)cc1O` [Phenstatin, phenstatin], the GI50 (KM20L2 (Colon) [6]) is given as 0.0004 µg/mL (≈ 0.00126 µM), the GI50 (SF-295 (CNS) [7]) is given as 0.052 µg/mL (≈ 0.163 µM) and the GI50 (NCI-H460 (Lung-NSC) [8]) is given as 0.0057 µg/mL (≈ 0.0179 µM). The IC50 (purified tubulin [9]) was 1 ± 0.2 µM and the GI50 (OVCAR-3 (Ovarian) [10]) was 0.0023 µg/mL (≈ 0.00723 µM).

Work on `COc1ccc(-c2c(C(=O)c3cc(OC)c(OC)c(OC)c3)oc3cc(OC)ccc23)cc1` [2-(3′,4′,5′-trimethoxybenzoyl)-3-(4′-methoxyphenyl)-6-methoxybenzo[b]furan, reference compound] yielded a GI50 (SW1736 (Thyroid ca)) of 0.047 µg/mL (≈ 0.105 µM), a GI50 (NCI-H460 (Lung-NSC) [2]; Homo sapiens, NCI-H460, Table I, read-out: GI50) of 0.041 µg/mL (≈ 0.0914 µM) and a GI50 (FADU (Pharynx-sqam)) of 0.035 µg/mL (≈ 0.078 µM). The GI50 (BXPC-3 (Pancreas-a); Homo sapiens, BXPC-3, Table I, read-out: GI50) was 0.038 µg/mL (≈ 0.0847 µM), the GI50 (DU-145 (Prostate); Homo sapiens, DU-145, Table I, read-out: GI50) was 0.062 µg/mL (≈ 0.138 µM) and the GI50 (SK-N-SH (Neuroblast)) was 0.025 µg/mL (≈ 0.0557 µM).

With `CCOP(=O)(Nc1cc(/C=C\c2cc(OC)c(OC)c(OC)c2)ccc1OC)OCC` [Phosphoramidate Analog 10, (Z)-1-(3′-Diethylphosphoramidate-4′-methoxyphenyl)-2-(3″,4″,5″-trimethoxyphenyl)ethene] the GI50 (SF-295 (CNS) [3]; SF-295) was 0.24 µg/mL (≈ 0.532 µM), the LC50 (SF-295 (CNS) [3]; SF-295) was greater than 10 µg/mL and the TGI (SF-295 (CNS) [3]; SF-295) was greater than 10 µg/mL. It also gave a GI50 (OVCAR-3 (Ovarian) [4]; OVCAR-3) of 0.19 µg/mL (≈ 0.421 µM), an LC50 (OVCAR-3 (Ovarian) [4]; OVCAR-3) greater than 10 µg/mL and a TGI (OVCAR-3 (Ovarian) [4]; OVCAR-3) of 0.86 µg/mL (≈ 1.9 µM). For the same molecule, the GI50 (KM20L2 (Colon) [5]; KM20L2) was 0.28 µg/mL (≈ 0.62 µM), the LC50 (KM20L2 (Colon) [5]; KM20L2) was greater than 10 µg/mL and the TGI (KM20L2 (Colon) [5]; KM20L2) was 0.61 µg/mL (≈ 1.35 µM). For the same molecule, the “activity in inhibition of tubulin polymerization” value (purified tubulin [1]) was “little if any activity”, the GI50 (NCI-H460 (Lung-NSC) [2]; NCI-H460) was 0.35 µg/mL (≈ 0.775 µM) and the LC50 (NCI-H460 (Lung-NSC) [2]; NCI-H460) was greater than 10 µg/mL. It also gave a TGI (NCI-H460 (Lung-NSC) [2]; NCI-H460) greater than 10 µg/mL, a GI50 (BXPC-3 (Pancreas-a); BXPC-3) of 0.15 µg/mL (≈ 0.332 µM) and an LC50 (BXPC-3 (Pancreas-a); BXPC-3) greater than 10 µg/mL. It also gave a TGI (BXPC-3 (Pancreas-a); BXPC-3) of 0.57 µg/mL (≈ 1.26 µM), a GI50 (DU-145 (Prostate); DU-145) of 0.26 µg/mL (≈ 0.576 µM) and an LC50 (DU-145 (Prostate); DU-145) greater than 10 µg/mL. The TGI (DU-145 (Prostate); DU-145) was 0.26 µg/mL (≈ 0.576 µM) and the GI50 (P388 leukemia cells; P388) was 0.31 µg/mL (≈ 0.687 µM).

In the case of `COc1ccc(/C=C\c2cc(OC)c(OC)c(OC)c2)cc1OP(=O)(O)O` [Combretastatin A-4 Prodrug], the GI50 (KM20L2 (Colon) [6]) is given as 0.34 µg/mL (≈ 0.858 µM), the GI50 (SF-295 (CNS) [7]) is given as 0.036 µg/mL (≈ 0.0908 µM) and the GI50 (NCI-H460 (Lung-NSC) [8]) is given as 0.029 µg/mL (≈ 0.0732 µM). The “inhibition of tubulin polymerization” value (purified tubulin [9]) was “no inhibition”, the IC50 (purified tubulin [9]) was greater than 80 µM and the GI50 (OVCAR-3 (Ovarian) [10]) was 0.023 µg/mL (≈ 0.058 µM).

Source: patent US6849656B1, “Indole-containing and combretastatin-related anti-mitotic and anti-tubulin polymerization agents” (Baylor University, priority 1999, dated 2005)
